Data from the NIST ThermoML archive (doi:10.1021/je2003012).
“And” between values parts separate entries of the source, which are not always exact repeats. Identical values can stand only once.

Assay: relative permittivity at various frequencies (dimensionless); wn = mass fraction of the nth substance listed
Conditions: Liquid, direct capacitance:P =

O=C=O [carbon dioxide] + CCO
Conditions | relative permittivity
322.4 K, 11900 kPa, w2 = 0.1 | 1.94
322.4 K, 12200 kPa, w2 = 0.1 | 1.96
322.4 K, 13700 kPa, w2 = 0.1 | 2.01
322.4 K, 13900 kPa, w2 = 0.1 | 2.02
322.4 K, 15700 kPa, w2 = 0.1 | 2.06
322.4 K, 15800 kPa, w2 = 0.1 | 2.07
322.4 K, 16700 kPa, w2 = 0.1 | 2.09
322.4 K, 17100 kPa, w2 = 0.1 | 2.09
322.4 K, 17600 kPa, w2 = 0.1 | 2.11
322.4 K, 18600 kPa, w2 = 0.1 | 2.13
322.4 K, 19600 kPa, w2 = 0.1 | 2.14
322.4 K, 20600 kPa, w2 = 0.1 | 2.16
322.4 K, 21600 kPa, w2 = 0.1 | 2.18
322.4 K, 21700 kPa, w2 = 0.1 | 2.18
322.4 K, 22600 kPa, w2 = 0.1 | 2.19
322.4 K, 23600 kPa, w2 = 0.1 | 2.21
322.4 K, 24500 kPa, w2 = 0.1 | 2.22
322.4 K, 25500 kPa, w2 = 0.1 | 2.23
322.4 K, 26500 kPa, w2 = 0.1 | 2.24
322.4 K, 27500 kPa, w2 = 0.1 | 2.26
322.4 K, 28400 kPa, w2 = 0.1 | 2.27
322.4 K, 29900 kPa, w2 = 0.1 | 2.28
322.5 K, 10200 kPa, w2 = 0.05 | 1.53
322.5 K, 12100 kPa, w2 = 0.05 | 1.63
322.5 K, 13100 kPa, w2 = 0.05 | 1.66
322.5 K, 14200 kPa, w2 = 0.05 | 1.7
322.5 K, 14700 kPa, w2 = 0.05 | 1.7
322.5 K, 16000 kPa, w2 = 0.05 | 1.73
322.5 K, 16100 kPa, w2 = 0.05 | 1.73
322.5 K, 17200 kPa, w2 = 0.05 | 1.75
322.5 K, 18900 kPa, w2 = 0.05 | 1.78
322.5 K, 19500 kPa, w2 = 0.05 | 1.79
322.5 K, 20800 kPa, w2 = 0.05 | 1.8
322.5 K, 21800 kPa, w2 = 0.05 | 1.81
322.5 K, 22700 kPa, w2 = 0.05 | 1.82
322.5 K, 23600 kPa, w2 = 0.05 | 1.83
322.5 K, 24700 kPa, w2 = 0.05 | 1.84
322.5 K, 25800 kPa, w2 = 0.05 | 1.85
322.5 K, 26300 kPa, w2 = 0.05 | 1.86
322.5 K, 27900 kPa, w2 = 0.05 | 1.87
322.5 K, 28400 kPa, w2 = 0.05 | 1.87
322.5 K, 29300 kPa, w2 = 0.05 | 1.88
322.5 K, 29500 kPa, w2 = 0.05 | 1.88
322.5 K, 30300 kPa, w2 = 0.05 | 1.89
323.3 K, 9900 kPa, w2 = 0.152 | 2.06
323.3 K, 11000 kPa, w2 = 0.152 | 2.13
323.3 K, 12000 kPa, w2 = 0.152 | 2.18
323.3 K, 12700 kPa, w2 = 0.152 | 2.21
323.3 K, 13600 kPa, w2 = 0.152 | 2.25
323.3 K, 14700 kPa, w2 = 0.152 | 2.28
323.3 K, 15900 kPa, w2 = 0.152 | 2.31
323.3 K, 16900 kPa, w2 = 0.152 | 2.34
323.3 K, 17800 kPa, w2 = 0.152 | 2.36
323.3 K, 18600 kPa, w2 = 0.152 | 2.37
323.3 K, 18700 kPa, w2 = 0.152 | 2.38
323.3 K, 19500 kPa, w2 = 0.152 | 2.4
323.3 K, 20300 kPa, w2 = 0.152 | 2.41
323.3 K, 21700 kPa, w2 = 0.152 | 2.44
323.3 K, 22800 kPa, w2 = 0.152 | 2.45
323.3 K, 23100 kPa, w2 = 0.152 | 2.46
323.3 K, 23500 kPa, w2 = 0.152 | 2.47
323.3 K, 24500 kPa, w2 = 0.152 | 2.48
323.3 K, 25400 kPa, w2 = 0.152 | 2.5
323.3 K, 26500 kPa, w2 = 0.152 | 2.51
323.3 K, 28400 kPa, w2 = 0.152 | 2.54
323.3 K, 29500 kPa, w2 = 0.152 | 2.56
323.4 K, 9800 kPa, w2 = 0.212 | 2.59
323.4 K, 10600 kPa, w2 = 0.212 | 2.61
323.4 K, 11500 kPa, w2 = 0.212 | 2.67
323.4 K, 12400 kPa, w2 = 0.212 | 2.71
323.4 K, 13100 kPa, w2 = 0.212 | 2.75
323.4 K, 14100 kPa, w2 = 0.212 | 2.79
323.4 K, 15800 kPa, w2 = 0.212 | 2.85
323.4 K, 16600 kPa, w2 = 0.212 | 2.87
323.4 K, 17800 kPa, w2 = 0.212 | 2.9
323.4 K, 18800 kPa, w2 = 0.212 | 2.93
323.4 K, 19600 kPa, w2 = 0.212 | 2.95
323.4 K, 19700 kPa, w2 = 0.212 | 2.95
323.4 K, 21100 kPa, w2 = 0.212 | 2.98
323.4 K, 22900 kPa, w2 = 0.212 | 3.03
323.4 K, 23100 kPa, w2 = 0.212 | 3.03
323.4 K, 23200 kPa, w2 = 0.212 | 3.03
323.4 K, 24700 kPa, w2 = 0.212 | 3.06
323.4 K, 26000 kPa, w2 = 0.212 | 3.08
323.4 K, 26700 kPa, w2 = 0.212 | 3.1
323.4 K, 27900 kPa, w2 = 0.212 | 3.12
323.4 K, 29500 kPa, w2 = 0.212 | 3.14
323.4 K, 30600 kPa, w2 = 0.212 | 3.15
333.2 K, 10500 kPa, w2 = 0.05 | 1.32
333.2 K, 11200 kPa, w2 = 0.05 | 1.41
333.2 K, 11900 kPa, w2 = 0.212 | 2.38
333.2 K, 12100 kPa, w2 = 0.05 | 1.48
333.2 K, 12900 kPa, w2 = 0.212 | 2.45
333.2 K, 13000 kPa, w2 = 0.05 | 1.54 and 1.53
333.2 K, 13200 kPa, w2 = 0.212 | 2.47
333.2 K, 13700 kPa, w2 = 0.05 | 1.57
333.2 K, 14100 kPa, w2 = 0.212 | 2.52
333.2 K, 14700 kPa, w2 = 0.212 | 2.54
333.2 K, 14900 kPa, w2 = 0.05 | 1.62
333.2 K, 15800 kPa, w2 = 0.212 | 2.59
333.2 K, 15900 kPa, w2 = 0.05 | 1.64
333.2 K, 16200 kPa, w2 = 0.212 | 2.61
333.2 K, 16900 kPa, w2 = 0.212 | 2.62
333.2 K, 17000 kPa, w2 = 0.05 | 1.67
333.2 K, 17300 kPa, w2 = 0.212 | 2.64
333.2 K, 17600 kPa, w2 = 0.05 | 1.69
333.2 K, 18500 kPa, w2 = 0.212 | 2.68
333.2 K, 19100 kPa, w2 = 0.05 | 1.72
333.2 K, 19100 kPa, w2 = 0.212 | 2.7
333.2 K, 19200 kPa, w2 = 0.212 | 2.7
333.2 K, 19400 kPa, w2 = 0.05 | 1.72
333.2 K, 21000 kPa, w2 = 0.05 | 1.75
333.2 K, 21200 kPa, w2 = 0.212 | 2.75
333.2 K, 21300 kPa, w2 = 0.212 | 2.75
333.2 K, 21600 kPa, w2 = 0.05 | 1.75
333.2 K, 22900 kPa, w2 = 0.05 | 1.77
333.2 K, 23000 kPa, w2 = 0.212 | 2.79
333.2 K, 23100 kPa, w2 = 0.212 | 2.79
333.2 K, 23700 kPa, w2 = 0.05 | 1.78
333.2 K, 24900 kPa, w2 = 0.212 | 2.83
333.2 K, 25000 kPa, w2 = 0.05 | 1.8
333.2 K, 25000 kPa, w2 = 0.212 | 2.83
333.2 K, 25200 kPa, w2 = 0.212 | 2.83
333.2 K, 25500 kPa, w2 = 0.212 | 2.85
333.2 K, 26800 kPa, w2 = 0.212 | 2.86
333.2 K, 26900 kPa, w2 = 0.05 | 1.82
333.2 K, 27000 kPa, w2 = 0.212 | 2.87
333.2 K, 27400 kPa, w2 = 0.05 | 1.82
333.2 K, 28400 kPa, w2 = 0.212 | 2.9
333.2 K, 28800 kPa, w2 = 0.05 | 1.83
333.2 K, 29900 kPa, w2 = 0.05 | 1.84
333.2 K, 30600 kPa, w2 = 0.212 | 2.94
333.3 K, 11800 kPa, w2 = 0.152 | 1.99
333.3 K, 11900 kPa, w2 = 0.1 | 1.74
333.3 K, 12900 kPa, w2 = 0.1 | 1.81
333.3 K, 12900 kPa, w2 = 0.152 | 2.07
333.3 K, 13700 kPa, w2 = 0.1 | 1.86
333.3 K, 13800 kPa, w2 = 0.152 | 2.11
333.3 K, 14800 kPa, w2 = 0.1 | 1.9
333.3 K, 14800 kPa, w2 = 0.152 | 2.16
333.3 K, 15700 kPa, w2 = 0.1 | 1.94
333.3 K, 15900 kPa, w2 = 0.152 | 2.2
333.3 K, 16700 kPa, w2 = 0.1 | 1.96
333.3 K, 16700 kPa, w2 = 0.152 | 2.22
333.3 K, 17700 kPa, w2 = 0.152 | 2.26
333.3 K, 17800 kPa, w2 = 0.1 | 2
333.3 K, 18500 kPa, w2 = 0.1 | 2.01
333.3 K, 18700 kPa, w2 = 0.152 | 2.28
333.3 K, 19400 kPa, w2 = 0.1 | 2.03
333.3 K, 19600 kPa, w2 = 0.1 | 2.03
333.3 K, 19700 kPa, w2 = 0.152 | 2.31
333.3 K, 20600 kPa, w2 = 0.1 | 2.06
333.3 K, 20800 kPa, w2 = 0.152 | 2.33
333.3 K, 21700 kPa, w2 = 0.1 | 2.08
333.3 K, 22000 kPa, w2 = 0.152 | 2.36
333.3 K, 22600 kPa, w2 = 0.1 | 2.09
333.3 K, 22700 kPa, w2 = 0.152 | 2.37
333.3 K, 23500 kPa, w2 = 0.152 | 2.38
333.3 K, 23900 kPa, w2 = 0.1 | 2.11
333.3 K, 24500 kPa, w2 = 0.152 | 2.4
333.3 K, 24800 kPa, w2 = 0.1 | 2.12
333.3 K, 25200 kPa, w2 = 0.1 | 2.13
333.3 K, 25600 kPa, w2 = 0.1 | 2.14 and 2.13
333.3 K, 25600 kPa, w2 = 0.152 | 2.42
333.3 K, 26500 kPa, w2 = 0.1 | 2.15
333.3 K, 26600 kPa, w2 = 0.1 | 2.15
333.3 K, 26600 kPa, w2 = 0.152 | 2.43
333.3 K, 27200 kPa, w2 = 0.1 | 2.16
333.3 K, 27500 kPa, w2 = 0.1 | 2.16
333.3 K, 27600 kPa, w2 = 0.152 | 2.45
333.3 K, 27900 kPa, w2 = 0.1 | 2.16
333.3 K, 28400 kPa, w2 = 0.152 | 2.46
333.3 K, 28500 kPa, w2 = 0.1 | 2.17
333.3 K, 29200 kPa, w2 = 0.1 | 2.18
333.3 K, 29200 kPa, w2 = 0.152 | 2.47
333.3 K, 29900 kPa, w2 = 0.152 | 2.48
